{
  "source": "patent US7981878B2",
  "about": "“Tumor treatment with gliotoxin derivatives” (priority 2005, dated 2011)",
  "key": {"518A2 (melanoma)": {"tested_on": "518A2 (melanoma)", "experiment": "Cell count analysis 518A2", "type": "cell-based, human", "description": "FIG. 8 a-d: Effects of gliotoxin on cell counts of various human tumour cell lines in vitro. Cell counts of a) hepatocellular carcinoma cell lines HepG2, Huh7, SNU398, Hep3b, HeLa (cervix) and the cholangiocarcinoma cell line NEC as well as b) the pancreatic cancer cell line Panc-1 and the melanoma cell lines d) MelJuso, Meljuso-Bcl-2 (+) and 607B after 72 h treatment with 200 nM gliotoxin; c-d) Cell count dose range experiments with c) pancreatic carcinoma cell lines Panc-1 and MiaPaCa as well as melanoma cell lines MelJuso, 518A2 and 607B using 25, 50 100 and 200 nM gliotoxin for 24 h. All data are given relative to control ±standard deviation.\nTumour cells were seeded at a density of 10,000 cells/well in 24-well plates. 24 h after seeding, medium containing gliotoxin was added to yield desired concentrations of gliotoxin. At time points indicated, culture medium was removed by suction. Adherent cells were washed with DPBS (Cambrex, Verviers, Belgium) and incubated with trypsin (Gibco) at 37° C. Detached cells were transferred to test tubes containing Cellpack isotonic fluid (Sysmex Europe, Bornbarch, Germany) and counted with a Coulter Z1 electronic cell counter (Beckman Coulter, Bedford, UK)."}, "[1]": {"tested_on": "PBMCs from healthy donors", "experiment": "Apoptosis of control PBMCs from healthy donors by FACS", "type": "cell-based, human", "settings": "0.2 μM gliotoxin, 4 hours", "description": "(§1) FIG. 4: Gliotoxin induces apoptosis in unstimulated as well as in TPA-stimulated B-CLL cells within 4 hours. Normal PBMCs (peripheral blood mononuclear cells) from healthy donors show a markedly lower Notch2 activity. Although gliotoxin inhibits Notch2 also in normal, TPA-stimulated cells, the gliotoxin-caused apoptosis rate is markedly lower in normal cells as compared to B-CLL cells. Non-stimulated and TPA stimulated PBMC's from healthy donors (HD) are less sensitive to 0.2 μM Gliotoxin despite a basal Notch2 activity. PBMC's and CLL cells were incubated with 0.2 μM Gliotoxin with or without TPA for 4 hours and the Notch2 activity as well as the percentage of apoptotic cells were determined by EMSA and FACS analysis, respectively.\n(§2) After 4 hours of gliotoxin treatment, massive signs of the starting apoptosis (AnnexinV+) could already be recognized in B-CLL cells. This effect was increased by TPA (a phorbol ester which stimulates the activation of lymphocytes)."}, "Notch2 [2]": {"tested_on": "Notch2", "experiment": "Notch2 activity band shift assay in 518A2", "type": "cell-based, human", "settings": "518A2, 200 nM gliotoxin, maximum at 24 h", "description": "FIG. 10 a-b: Effects of gliotoxin on Notch2 regulation and apoptosis. The melanoma cell line 518A2 (A) and the pancreatic cancer cell line Panc-1 (B) were treated with 200 nM gliotoxin or vehicle control for 24 h Notch2 activity was analysed by band shift assay. Apoptosis was measured as annexin V and 7-AAD double positivity by FACS. Data are given as percentage of apoptotic cells ±standard deviation.\n500,000 cells were seeded on 12 cm^2 plates for 24 h and then treated with 200 nM gliotoxin. At the time points as indicated cells were harvested and immediately frozen at −80° C. The band shift assay was performed as described for B-CLL."}, "518A2 melanoma xenograft": {"tested_on": "518A2 melanoma xenograft", "experiment": "518A2 melanoma nude mouse xenograft model", "type": "in vivo", "text": "FIG. 9: Effects of gliotoxin in a 518A2 melanoma nude mouse xenograft model. 518 A2 cells (9×10^6) were inoculated into the lower right and left flank of each mouse. […] The flexible dose and treatment schedule of each group are given in the squares next to each group in the figure. All data are given as mean tumour volumes ±95% CI. The dotted arrows indicate a significant decrease of tumour volume (Wilcoxon matched pairs test, P<0.05) within Group 2 and Group 4 three days after application of 5 mg-0-2.5 mg of gliotoxin. It was shown that even at late administrations with progressed tumours gliotoxin administration is effective group 4 (ip administration at day 25).\nPathogen-free, 4-6 week old, female athymic nude mice (Harlan Winkelmann, Borchen, Germany) were housed under sterile conditions and treated according to the regulations of the local animal welfare committee. Hundred μl of a tumour cell suspension in DPBS containing 9×10^6 518A2 cells were inoculated into the lower right and left flank of each mouse. When mean tumour volume reached approximately 75 mm^3 (based on caliper measurements), mice (n=8/control group, n=6/treatment group) were randomly assigned to treatment groups and received one of the following treatment regimens:\nControl (2% DMSO), Group 1 (start dose 1 mg/kg i.p.), Group 2 (start dose 5 mg/kg i.v.), and Group 3 (start dose 5 mg ip) and Group 4 (start dose 7 mg s.c.).\nFlexible explorative dosing schedule was used in this in vivo trial: At baseline, all treatment groups received their respective start dose to estimate immediate toxicity of gliotoxin. Beginning with day 4:\nGroup 1 received 1 mg/kg daily including day 19.\nGroup 2 received 5 mg i.v. at day 4 and day 7 followed by 5 mg-0-2.5 mg ip at day 11\nGroup 3 received 5 mg/kg i.p. once weakly including day 18.\nGroup 4 remained untreated until day 25 and received then 5 mg-0-2.5 mg once only. The trial was stopped when control mice reached a mean tumour volume of 1000 mm^3.\nIn the xenograft melanoma model, tumour volume of each group is given as mean±95% confidence interval. The anti-tumour effect of gliotoxin was described as tumour volume of treatment group/tumour volume of control group×100 (T/C)."}, "[3]": {"tested_on": "cultures from animal cells", "settings": "cited from earlier work"}, "Notch2 [4]": {"target": "T1, Notch2 (Homo sapiens, UniProt Q04721)", "T1 construct": "endogenous in cells; host or cells: PBMCs from healthy donors, with or without TPA", "T1 sequence (Q04721 1697-2471 limits assumed)": "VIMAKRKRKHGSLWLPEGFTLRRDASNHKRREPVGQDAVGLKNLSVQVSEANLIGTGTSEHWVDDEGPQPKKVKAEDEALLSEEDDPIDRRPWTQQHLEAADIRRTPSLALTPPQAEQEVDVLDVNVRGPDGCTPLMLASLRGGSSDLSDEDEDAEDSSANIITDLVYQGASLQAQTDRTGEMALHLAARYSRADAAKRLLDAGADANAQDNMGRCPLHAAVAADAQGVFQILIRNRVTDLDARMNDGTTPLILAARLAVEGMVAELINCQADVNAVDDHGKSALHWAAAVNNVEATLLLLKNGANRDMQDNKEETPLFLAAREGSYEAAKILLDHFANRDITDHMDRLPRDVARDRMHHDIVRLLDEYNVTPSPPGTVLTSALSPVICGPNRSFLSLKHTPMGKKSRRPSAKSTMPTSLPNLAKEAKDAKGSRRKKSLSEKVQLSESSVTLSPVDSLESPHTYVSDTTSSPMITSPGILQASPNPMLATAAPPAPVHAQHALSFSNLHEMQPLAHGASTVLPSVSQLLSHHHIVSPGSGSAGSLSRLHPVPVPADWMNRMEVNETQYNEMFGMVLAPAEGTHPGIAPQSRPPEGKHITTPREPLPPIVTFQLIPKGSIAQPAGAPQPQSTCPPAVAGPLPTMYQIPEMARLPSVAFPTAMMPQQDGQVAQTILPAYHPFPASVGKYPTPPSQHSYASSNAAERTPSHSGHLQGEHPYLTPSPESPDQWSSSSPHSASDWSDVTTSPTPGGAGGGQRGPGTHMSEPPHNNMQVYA", "experiment": "Notch2 activity in PBMCs from healthy donors by EMSA", "type": "cell-based", "settings": "TPA-stimulated PBMCs, 0.2 μM gliotoxin, 4 hours", "description": "as §1, §2"}},
  "data": [
    {"smiles": "CN1C(=O)[C@]23CC4=CC=C[C@H](O)[C@H]4N2C(=O)[C@@]1(CO)SS3", "note": "[gliotoxin, [3R-(3α,5aβ,6β,10aα)]-2,3,5a,6-tetrahydro-6-hydroxy-3-(hydroxymethyl)-2-methyl-10H-3,10a-epi-dithiopyrazino[1,2-a]indol-1,4-dion]", "values": [
      {"measurement": "effect on cell count", "setting": "518A2 (melanoma); 518A2, 200 nM gliotoxin, 72 h", "value": "very effective"},
      {"measurement": "cytotoxicity in dose range experiment (cell count)", "setting": "518A2 (melanoma); 518A2, 25, 50, 100 and 200 nM, 24 h", "value": "clear dose dependent cytotoxicity"},
      {"measurement": "apoptosis", "setting": "[1]; TPA-stimulated PBMCs", "value": 17, "unit": "%"},
      {"measurement": "apoptosis", "setting": "[1]; non-stimulated PBMCs", "value": 20, "unit": "%"},
      {"measurement": "Notch-2 activity (band shift assay)", "setting": "Notch2 [2]", "value": "time dependent down regulation"},
      {"measurement": "T/C (tumour volume of treatment group/control group×100)", "setting": "518A2 melanoma xenograft; Group 1, 1 mg/kg i.p. daily until day 19, day 21", "value": 37, "unit": "%"},
      {"measurement": "T/C (tumour volume of treatment group/control group×100)", "setting": "518A2 melanoma xenograft; Group 2, 3×5 mg iv within 7 days then 1×5 mg-0-2.5 mg ip day 11, day 21", "value": 32, "unit": "%"},
      {"measurement": "mean tumour volume", "setting": "518A2 melanoma xenograft; Group 2, day 11 (before application of 5 mg-0-2.5 mg)", "value": 115, "unit": "mm^3"},
      {"measurement": "mean tumour volume", "setting": "518A2 melanoma xenograft; Group 2, day 15 (after application of 5 mg-0-2.5 mg at day 11)", "value": 83, "unit": "mm^3"},
      {"measurement": "T/C (tumour volume of treatment group/control group×100)", "setting": "518A2 melanoma xenograft; Group 3, 5 mg/kg i.p. weekly until day 18, day 21", "value": 49, "unit": "%"},
      {"measurement": "T/C (tumour volume of treatment group/control group×100)", "setting": "518A2 melanoma xenograft; Group 4, 5 mg-0-2.5 mg once at day 25, day 32", "value": 23, "unit": "%"},
      {"measurement": "toxicity after subcutaneous application", "setting": "518A2 melanoma xenograft; Group 4, 7 mg/kg s.c. start dose, nude mice", "value": "severe local toxicity"},
      {"measurement": "mean tumour volume", "setting": "518A2 melanoma xenograft; Group 4, day 25 (before application of 5 mg-0-2.5 mg)", "value": 576, "unit": "mm^3"},
      {"measurement": "mean tumour volume", "setting": "518A2 melanoma xenograft; Group 4, day 28 (after application of 5 mg-0-2.5 mg at day 25)", "value": 218, "unit": "mm^3"},
      {"measurement": "T/C (tumour volume of treatment group/control group×100)", "setting": "518A2 melanoma xenograft; Group 4, single 7 mg/kg s.c. start dose, then untreated, day 25", "value": 92, "unit": "%"},
      {"measurement": "concentration at which the effect changes towards necrosis", "setting": "[3]", "value": "more than 10 μM"},
      {"measurement": "concentration for complete necrosis of the cell cultures", "setting": "[3]", "value": "≥ 50", "unit": "µM"},
      {"measurement": "physiologic Notch2 activity (EMSA)", "setting": "Notch2 [4]", "value": "marked reduction"}
    ]}
  ]
}
